The subject of one assay is A549 cells. The assay can be described thus: Palmitate-driven respiration in intact A549 cells (Seahorse). In kind it is cell-based. As to conditions: intact A549, albumin-buffered palmitate. On the procedure:
All respirometry studies were conducted in either a Seahorse XF96 or XFe96 Analyzer. All experiments were conducted at 37° C., and at pH 7.4 (intact cells) or 7.2 (permeabilized cells and isolated mitochondria). Calculation of respiratory parameters was made according to standard protocols (Divakaruni, A. S., Paradyse, A., Ferrick, D. A., Murphy, A. N., and Jastroch, M. (2014a) Analysis and interpretation of microplate-based oxygen consumption and pH data. Meth. Enzym 547, 509-54), and all rates were corrected for non-mitochondrial respiration/background signal by subtracting the oxygen consumption rate insensitive to rotenone plus antimycin A.
Palmitate oxidation in intact cells (FIG. 1A, FIG. 1B) was assessed by measuring palmitate-driven respiration that was sensitive to low concentrations of etomoxir (Rogers, G. W., Nadanaciva, S., Swiss, R., Divakaruni, A. S., and Will, Y. (2014) Assessment of fatty acid beta oxidation in cells and isolated mitochondria. Curr. Protoc. Toxicol. 60, 25.3, 1-19). […] Respiration was measured under basal conditions as well as after injection of 2 μM oligomycin, two sequential additions of 1 μM FCCP, followed by 0.2 μM rotenone with 1 μM antimycin A. Etomoxir was added to the assay medium 30 min. prior to measurements of basal respiratory rates.

The next assay deals with LCFA oxidation in BMDMs. The assay can be described thus: 9,10-3H-palmitate oxidation (3H2O release) in BMDMs. In kind it is cell-based, mouse. The conditions noted are these: 3 μM etomoxir. On the procedure: BMDMs at day 6 of differentiation were seeded at 3×10^5 cells/well in 12 well plates in BMDM media. The next day, cells were treated in DMEM containing 25 mM glucose supplemented with 5% FBS, 2 mM L-Glutamax, 100 units/mL, 100 μg/mL penicillin/streptomycin, 1 mM of sodium pyruvate, 1 mM carnitine, and 5% v/v conditioned media containing macrophage colony stimulating factor (M-CSF) under one of 5 conditions: control, 20 ng/mL of IL-4±3 μM or 200 μM of etomoxir, or 200 nM rotenone, or 200 nM antimycin A for 24 hr. Fatty acid oxidation was measured 24 hours later as previously described (Rognstad, R. (1991) Estimation of peroxisomal and mitochondrial fatty acid oxidation in rat hepatocytes using tritiated substrates. Biochem J 279:147-150, 1991; Cha, B. S., Ciaraldi, T. P., Park, K. S., Carter, L., Mudaliar, S. R., and Henry R R. (2005) Impaired fatty acid metabolism in type 2 diabetic skeletal muscle cells is reversed by PPARgamma agonists. Am J Physiol Endocrinol Metab. 289, E151-9) following a fluid change to DMEM with components as described above except 10 mM glucose and 0.2 μCi (final concentration of 5 μM) BSA-conjugated [9,10-3H]palmitic acid. No additional IL-4 was added at the time of this fluid change, but etomoxir, rotenone and antimycin A were added, and the plates were placed in a […] incubator at 37° C. for 3 hr. After incubation, a 100 μL aliquot of the culture medium was passed over an ion-exchange resin, and the column was washed twice with 0.75 ml of water. Free fatty acids were retained by the resin, whereas the tritium hydrolyzed from radiolabeled palmitate catabolism was released as labeled water, which passes freely through the resin, and is subsequently counted for radioactivity. All data are corrected for protein content in each well. There were 3 technical replicates for each condition, and 4 biological replicates arising from 4 separate animals.

A further assay has as its system respiratory complex I. Briefly: Respiration in double-permeabilized HepG2 cells. In kind it is biochemical. As to conditions: 100 μM etomoxir. On the procedure:
When permeabilized cells were treated with alamethicin to form pores of 3-6 kDa in the mitochondrial inner membrane (“double-permeabilized” cells) and complex I-mediated respiration was directly assessed (FIG. 6F), 10 μg/mL alamethicin was added at 37° C. 15 minutes prior to measurements (Divakaruni, A. S., Andreyev, A. Y., Rogers, G. W., and Murphy, A. N. (2017a) In situ measurements of mitochondrial matrix enzyme activities using plasma and mitochondrial membrane permeabilization agents. Anal. Biochem. 17, 30385-8). Double-permeabilized cells were offered 10 μM cytochrome c in the experimental medium and either 10 mM NADH or 10 mM succinate with 2 μM rotenone to drive respiration.

The next assay deals with BMDMs. The assay can be described thus: Intracellular free coenzyme A levels in BMDMs. In kind it is cell-based, mouse. The conditions noted are these: 200 μM etomoxir, IL-4, 20 hr. As to the method:
On Day 6 of differentiation, BMDMs were seeded at 1.2×10^6 cells/well in 6-well plates. 24 hr later, BMDMs were mock-treated or co-treated with 20 ng/mL IL-4±200 μM etomoxir±500 μM CoA in DMEM supplemented with 5% FBS, 2 mM L-glutamine, 100 units/mL, […] penicillin/streptomycin, 500 μM of sodium pyruvate and 5% v/v conditioned media containing macrophage colony stimulating factor (M-CSF) for 20 hr. Prior to sample collections, cells were washed with 600 μL of 0.9% (w/v) NaCl twice. Three wells per replicate per treatment were combined in 2 mL centrifuge tubes and centrifuged at 500 g for 5 mins at 4° C. The supernatant was removed, and the cell pellet was re-suspended in 75 μL of ice-cold 0.7% (v/v) perchloric acid for 5 min. Samples were then centrifuged at 10,000 g for 7 mins at 4° C. and the resulting supernatant was adjusted to pH 7 with 2M NaOH and 500 mM K2HPO4. The coenzyme A concentration was determined with Coenzyme A Assay Kit following manufacturer's instructions (Sigma MAK034) using 40 μL of sample supernatant. Coenzyme A levels were normalized to total cellular protein (BCA method).

For a further assay, the system named is M(IL-4) polarization. The conditions noted are these: cited from earlier work.

Each structure is given as a SMILES string. “Also recorded” adds a separate entry of the source.

For the compound `CCOC(=O)[C@@]1(CCCCCCOc2ccc(Cl)cc2)CO1` [etomoxir], the “half-maximal inhibitory concentration (EC50) for uncoupler-stimulated respiration” value in the assay on A549 cells is reported as “sub-micromolar”. In the assay on LCFA oxidation in BMDMs, the “3H2O release from tritiated palmitate” value is “effectively suppress”. Moreover, the “oxidation of NADH” value in the assay on respiratory complex I is given as “inhibit oxidation of NADH”. Besides, the “intracellular free CoA levels” value with BMDMs was “significantly dropped”. Also, the “blocking M(IL-4) polarization in Cpt2-/- BMDMs vs WT” value in the assay with M(IL-4) polarization (200 μM etomoxir) is given as “equally effective”. Further, in the assay on M(IL-4) polarization (etomoxir 10 μM to 100 μM), the “IL-4-associated markers / IL-4 response” value was “unaffected; also recorded: fail to affect”.
